Experiments:
Assay type in all cases: biochemical
Pdr11p [1] = biological target: T1, Pdr11p (Saccharomyces cerevisiae, UniProt P40550); test: radiolabelled ATPase assay (release of inorganic phosphate) with purified protein
T1 construct: gene PDR11; N-terminal FLAG-tagged Pdr11p, purified in DDM
T1 sequence (P40550 1-1411): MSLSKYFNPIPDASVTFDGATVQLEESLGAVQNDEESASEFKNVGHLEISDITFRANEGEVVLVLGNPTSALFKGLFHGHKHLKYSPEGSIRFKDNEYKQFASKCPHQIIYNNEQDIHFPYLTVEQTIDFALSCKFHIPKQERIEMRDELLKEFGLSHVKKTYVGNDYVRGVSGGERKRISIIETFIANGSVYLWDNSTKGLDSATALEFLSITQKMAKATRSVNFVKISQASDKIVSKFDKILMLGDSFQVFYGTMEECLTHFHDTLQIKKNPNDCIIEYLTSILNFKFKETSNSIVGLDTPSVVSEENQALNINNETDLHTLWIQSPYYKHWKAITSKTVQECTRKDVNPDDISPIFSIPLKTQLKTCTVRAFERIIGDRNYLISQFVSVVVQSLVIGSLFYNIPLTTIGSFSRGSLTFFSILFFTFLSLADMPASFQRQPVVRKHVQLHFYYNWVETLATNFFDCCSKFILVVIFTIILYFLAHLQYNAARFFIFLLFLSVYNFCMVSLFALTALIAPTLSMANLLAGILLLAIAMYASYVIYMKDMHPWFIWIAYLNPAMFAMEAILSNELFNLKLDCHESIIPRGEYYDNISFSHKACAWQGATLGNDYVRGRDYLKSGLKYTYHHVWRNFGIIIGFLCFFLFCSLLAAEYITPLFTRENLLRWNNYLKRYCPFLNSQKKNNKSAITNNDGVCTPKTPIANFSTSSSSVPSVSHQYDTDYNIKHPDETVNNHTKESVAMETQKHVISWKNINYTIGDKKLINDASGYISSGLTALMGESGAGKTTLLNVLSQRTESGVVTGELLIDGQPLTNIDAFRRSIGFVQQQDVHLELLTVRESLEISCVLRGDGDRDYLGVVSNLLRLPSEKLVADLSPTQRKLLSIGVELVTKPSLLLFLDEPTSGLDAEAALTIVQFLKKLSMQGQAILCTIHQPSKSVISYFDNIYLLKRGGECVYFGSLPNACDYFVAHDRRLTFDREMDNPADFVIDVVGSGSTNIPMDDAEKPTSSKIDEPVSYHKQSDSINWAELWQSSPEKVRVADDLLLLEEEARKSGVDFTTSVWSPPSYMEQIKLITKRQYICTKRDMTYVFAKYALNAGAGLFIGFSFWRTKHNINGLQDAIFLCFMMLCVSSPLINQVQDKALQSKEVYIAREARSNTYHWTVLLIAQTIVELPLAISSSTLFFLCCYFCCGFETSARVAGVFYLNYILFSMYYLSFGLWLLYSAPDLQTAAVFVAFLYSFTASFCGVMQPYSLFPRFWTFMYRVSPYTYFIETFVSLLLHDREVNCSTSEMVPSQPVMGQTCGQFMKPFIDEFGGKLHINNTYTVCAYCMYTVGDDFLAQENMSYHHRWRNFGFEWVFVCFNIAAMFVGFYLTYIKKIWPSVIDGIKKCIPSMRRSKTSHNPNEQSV

Aus1p = biological target: T2, Aus1p (Saccharomyces cerevisiae, UniProt Q08409); test: radiolabelled ATPase assay with liposome-reconstituted protein
T2 construct: gene AUS1; FLAG-tagged Aus1p, purified and reconstituted in liposomes
T2 sequence (Q08409 1-1394): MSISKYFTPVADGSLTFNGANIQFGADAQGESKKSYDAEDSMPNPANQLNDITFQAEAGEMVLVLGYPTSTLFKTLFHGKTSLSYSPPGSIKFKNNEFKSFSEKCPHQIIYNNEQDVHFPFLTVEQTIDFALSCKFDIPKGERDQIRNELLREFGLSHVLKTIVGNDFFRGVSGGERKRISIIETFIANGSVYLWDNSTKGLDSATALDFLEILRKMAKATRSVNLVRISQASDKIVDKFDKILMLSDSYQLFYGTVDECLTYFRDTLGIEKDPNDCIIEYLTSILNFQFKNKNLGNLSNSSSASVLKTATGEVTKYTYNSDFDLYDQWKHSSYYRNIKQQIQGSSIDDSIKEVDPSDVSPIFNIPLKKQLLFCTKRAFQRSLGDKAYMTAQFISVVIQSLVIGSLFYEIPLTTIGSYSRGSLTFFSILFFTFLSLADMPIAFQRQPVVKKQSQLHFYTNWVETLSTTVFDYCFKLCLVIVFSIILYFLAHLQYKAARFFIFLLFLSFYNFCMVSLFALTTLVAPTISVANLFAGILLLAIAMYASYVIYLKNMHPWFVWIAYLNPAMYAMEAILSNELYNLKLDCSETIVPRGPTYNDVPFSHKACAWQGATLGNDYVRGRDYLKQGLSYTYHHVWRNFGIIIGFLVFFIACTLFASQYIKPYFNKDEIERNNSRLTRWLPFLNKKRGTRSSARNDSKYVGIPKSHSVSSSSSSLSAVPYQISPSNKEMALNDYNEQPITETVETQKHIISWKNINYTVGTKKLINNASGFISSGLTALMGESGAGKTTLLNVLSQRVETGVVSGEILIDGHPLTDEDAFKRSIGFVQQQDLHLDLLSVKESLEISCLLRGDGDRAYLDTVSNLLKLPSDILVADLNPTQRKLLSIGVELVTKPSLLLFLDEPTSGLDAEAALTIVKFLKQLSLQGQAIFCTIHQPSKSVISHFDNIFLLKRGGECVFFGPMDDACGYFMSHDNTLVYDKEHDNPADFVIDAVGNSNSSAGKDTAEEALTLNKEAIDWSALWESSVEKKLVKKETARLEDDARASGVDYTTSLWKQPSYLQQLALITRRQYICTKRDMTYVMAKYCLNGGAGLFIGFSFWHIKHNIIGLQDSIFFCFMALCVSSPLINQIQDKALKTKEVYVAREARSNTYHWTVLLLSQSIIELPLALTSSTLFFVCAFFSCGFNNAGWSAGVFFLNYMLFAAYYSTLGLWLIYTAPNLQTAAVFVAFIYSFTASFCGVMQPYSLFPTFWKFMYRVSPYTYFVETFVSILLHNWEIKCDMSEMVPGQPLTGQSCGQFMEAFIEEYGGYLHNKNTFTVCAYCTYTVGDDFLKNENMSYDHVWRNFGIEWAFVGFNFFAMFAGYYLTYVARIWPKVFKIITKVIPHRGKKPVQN

Pdr11p [2] = biological target: T1, Pdr11p; test: radiolabelled ATPase assay with purified protein, […] AlF3
Pdr11p [3] = biological target: T1, Pdr11p; test: radiolabelled ATPase assay, dose-response with purified protein

Nc1ncnc2c1ncn2[C@@H]1O[C@H](COP(=O)(O)OP(=O)(O)OP(=O)(O)O)[C@@H](O)[C@H]1O [ATP]
radiolabelled ATPase assay (release of inorganic phosphate) with purified protei (Pdr11p [1]): ~ 60 ± 24 nmol of ATP/min/mg of protein | radiolabelled ATPase assay with liposome-reconstituted protein (Aus1p): Purified Pdr11p and Aus1p were reconstituted into different liposomes (containing Rho-PE as fluorescent lipid marker) and assayed for ATPase activity

[F][Al]([F])[F] [aluminium fluoride]
radiolabelled ATPase assay with purified protein, 1 mM AlF3 (Pdr11p [2]): strongly inhibited by the classical inhibitors of ABC proteins beryllium fluoride and aluminium fluoride (Fig 4B)

[O]=[V]([OH])([OH])[OH] [orthovanadate]
IC50 (Pdr11p [3]): 4 ± 2 mM

From PMC5602531, “Purification and characterisation of the yeast plasma membrane ATP binding cassette transporter Pdr11p” (PLoS ONE, 2017)
